Positions of bridges follow the written chain, without caps; N, C: chain ends. Non-standard residues stand in square brackets, D forms with d. Residues, ends and D or L forms follow the SMILES beside them. R8 = C=CCCCCCC[C@@](C)(N)C(=O)O; S5 = C=CCCC[C@](C)(N)C(=O)O
Assays:
E. coli = type: cell-based, Escherichia coli; conditions: Table 1; microbroth dilution, refined MHB, 20-24 hours at 37° C.
Description: Antimicrobial Activity Assay The following microbroth dilution protocol was adapted to determine the MIC of each peptide. First, Mueller-Hinton broth (MHB) was passed through an anion exchange column to remove polyanionic species and generate refined MHB. This refined broth was then used in the standard microbroth dilution protocol devised by Hancock et al. for 96 well plates. […] Briefly, bacterial cells were grown overnight in refined MHB at 37° C. and then diluted and allowed to grow again for several hours. Serial dilutions of peptide stocks in water (10 μl) were prepared using clear round-bottom polypropylene 96-well plates. Then 90 μl of bacteria in refined MHB was added to give a final inoculum of 5×10^5 CFU/ml. The plates were then covered with porous tape to reduce evaporation, and incubated for 20-24 hours at 37° C.

[1] = test system: human red blood cells (RBCs); type: cell-based; conditions: red cells of human, 1 h, 50
Excerpt: One of the key obstacles that have long impeded the use of AMPs in systemic infections such as sepsis is their tendency to lyse human cells, such as red blood cells (RBCs). Thus, it is critical to minimize hemolytic activity as much as possible to achieve a therapeutic window. […] Of note, in those circumstances where hydrocarbon staples increase hemolytic activity due to increasing hydrophobicity, the alkene moiety can be modified, e.g., by dihydroxylation, to install hydrophilic residues and potentially mitigate hemolysis.
Hemolytic Activity Assay For the determination of hemolytic activity, the following protocol was applied: human blood samples were centrifuged to isolate red blood cells (RBCs), which were then washed and suspended in phosphate-buffered saline to yield a 1% (v/v) suspension. This suspension was then added to serial dilutions of peptide stocks in water in clear round-bottom polypropylene 96-well plates and the plates incubated for 1 hour at 37° C. After incubation, the plates were centrifuged and the supernatant isolated to determine the amount of hemoglobin released using a spectrophotometer (570 nm). The minimum hemolytic concentration (MHC) was determined by assessing the peptide concentration at which there was less than 1% hemoglobin release.

circular dichroism = conditions: 10 mM phosphate buffer; pH 7.4; ns °C; 100 uM

Structure (SMILES)	Antimicrobial Activity NIC (μg/ml) E. coli (E. coli) [µg/mL]	% Hemolysis at 50 μg/ml [1] [%]	helicity (circular dichroism) [%]
CC(C)C[C@H](NC(=O)[C@H](CC(C)C)NC(=O)[C@H](CCCNC(=N)N)NC(=O)[C@H](Cc1c[nH]cn1)NC(=O)[C@]1(C)CCCC=CCCCCCC[C@@](C)(NC(=O)CNC(=O)[C@H](C)NC(=O)[C@H](CCCNC(=N)N)NC(=O)[C@H](CO)NC(=O)[C@H](CO)NC(=O)[C@H](CCCNC(=N)N)NC(=O)[C@@H](N)[C@@H](C)O)C(=O)N[C@@H](CCC(N)=O)C(=O)N[C@@H](Cc2c[nH]c3ccccc23)C(=O)N2CCC[C@H]2C(=O)N[C@@H](C(C)C)C(=O)NCC(=O)N[C@@H](CCCNC(=N)N)C(=O)N1)C(=O)N[C@@H](CCCNC(=N)N)C(=O)N[C@@H](CCCCN)C(N)=O [BFStap(i + 7)5] (H-TRSSRAG[R8]QWPVGR[S5]HRLLRK-NH2; staple 8-15; N-terminus and C-terminus assumed)	52.1	6.8	–
CC(C)C[C@H](NC(=O)[C@H](CC(C)C)NC(=O)[C@H](CCCNC(=N)N)NC(=O)[C@H](Cc1c[nH]cn1)NC(=O)[C@@H](NC(=O)[C@H](CCCNC(=N)N)NC(=O)CNC(=O)[C@]1(C)CCCC=CCCC[C@](C)(NC(=O)CNC(=O)[C@H](C)NC(=O)[C@H](CCCNC(=N)N)NC(=O)[C@H](CO)NC(=O)[C@H](CO)NC(=O)[C@H](CCCNC(=N)N)NC(=O)[C@@H](N)[C@@H](C)O)C(=O)N[C@@H](CCC(N)=O)C(=O)N[C@@H](Cc2c[nH]c3ccccc23)C(=O)N2CCC[C@H]2C(=O)N1)C(C)C)C(=O)N[C@@H](CCCNC(=N)N)C(=O)N[C@@H](CCCCN)C(N)=O [BFStap(i + 4)8] (H-TRSSRAG[S5]QWP[S5]GRVHRLLRK-NH2; staple 8-12; N-terminus and C-terminus assumed)	29.2	2.8	2.3
CC(C)C[C@H](NC(=O)CNC(=O)[C@H](C)NC(=O)[C@H](CCCNC(=N)N)NC(=O)[C@H](CO)NC(=O)[C@H](CO)NC(=O)[C@H](CCCNC(=N)N)NC(=O)[C@@H](N)[C@@H](C)O)C(=O)N[C@@H](CCC(N)=O)C(=O)N[C@@H](Cc1c[nH]c2ccccc12)C(=O)N1CCC[C@H]1C(=O)N[C@H](C(=O)N[C@@]1(C)CCCC=CCCC[C@@](C)(C(=O)N[C@@H](CC(C)C)C(=O)N[C@@H](CC(C)C)C(=O)N[C@@H](CCCNC(=N)N)C(=O)N[C@@H](CCCCN)C(N)=O)NC(=O)[C@H](Cc2c[nH]cn2)NC(=O)[C@H](C(C)C)NC(=O)[C@H](CCCNC(=N)N)NC1=O)C(C)C [BFStap(i + 4)5] (H-TRSSRAGLQWPV[S5]RVH[S5]LLRK-NH2; staple 13-17; N-terminus and C-terminus assumed)	66.7	3.0	8.8
CC(C)C[C@H](NC(=O)CNC(=O)[C@H](C)NC(=O)[C@H](CCCNC(=N)N)NC(=O)[C@H](CO)NC(=O)[C@H](CO)NC(=O)[C@H](CCCNC(=N)N)NC(=O)[C@@H](N)[C@@H](C)O)C(=O)N[C@@H](CCC(N)=O)C(=O)N[C@@H](Cc1c[nH]c2ccccc12)C(=O)N1CCC[C@H]1C(=O)N[C@H](C(=O)N[C@]1(C)CCCCCCC=CCCC[C@@](C)(C(=O)N[C@@H](CCCCN)C(N)=O)NC(=O)[C@H](CC(C)C)NC(=O)[C@H](CC(C)C)NC(=O)[C@H](CCCNC(=N)N)NC(=O)[C@H](Cc2c[nH]cn2)NC(=O)[C@H](C(C)C)NC(=O)[C@H](CCCNC(=N)N)NC1=O)C(C)C [BFStap(i + 7)2] (H-TRSSRAGLQWPV[R8]RVHRLL[S5]K-NH2; staple 13-20; N-terminus and C-terminus assumed)	33.3	3.1	15.6
CC(C)C[C@H](NC(=O)CNC(=O)[C@H](C)NC(=O)[C@H](CCCNC(=N)N)NC(=O)[C@H](CO)NC(=O)[C@H](CO)NC(=O)[C@H](CCCNC(=N)N)NC(=O)[C@@H](N)[C@@H](C)O)C(=O)N[C@@H](CCC(N)=O)C(=O)N[C@@H](Cc1c[nH]c2ccccc12)C(=O)N1CCC[C@H]1C(=O)N[C@]1(C)CCCCCCC=CCCC[C@@](C)(C(=O)N[C@@H](CCCNC(=N)N)C(=O)N[C@@H](CCCCN)C(N)=O)NC(=O)[C@H](CC(C)C)NC(=O)[C@H](CCCNC(=N)N)NC(=O)[C@H](Cc2c[nH]cn2)NC(=O)[C@H](C(C)C)NC(=O)[C@H](CCCNC(=N)N)NC(=O)CNC1=O [BFStap(i + 7)3] (H-TRSSRAGLQWP[R8]GRVHRL[S5]RK-NH2; staple 12-19; N-terminus and C-terminus assumed)	29.2	6.1	–
CC(C)C[C@H](NC(=O)CNC(=O)[C@H](C)NC(=O)[C@H](CCCNC(=N)N)NC(=O)[C@H](CO)NC(=O)[C@H](CO)NC(=O)[C@H](CCCNC(=N)N)NC(=O)[C@@H](N)[C@@H](C)O)C(=O)N[C@@H](CCC(N)=O)C(=O)N[C@@H](Cc1c[nH]c2ccccc12)C(=O)N1CCC[C@H]1C(=O)N[C@H](C(=O)NCC(=O)N[C@@H](CCCNC(=N)N)C(=O)N[C@H](C(=O)N[C@@]1(C)CCCC=CCCC[C@@](C)(C(=O)N[C@@H](CCCCN)C(N)=O)NC(=O)[C@H](CC(C)C)NC(=O)[C@H](CC(C)C)NC(=O)[C@H](CCCNC(=N)N)NC1=O)C(C)C)C(C)C [BFStap(i + 4)2] (H-TRSSRAGLQWPVGRV[S5]RLL[S5]K-NH2; staple 16-20)	–	12.6	3.2
CC(C)C[C@H](NC(=O)CNC(=O)[C@H](C)NC(=O)[C@H](CCCNC(=N)N)NC(=O)[C@H](CO)NC(=O)[C@H](CO)NC(=O)[C@H](CCCNC(=N)N)NC(=O)[C@@H](N)[C@@H](C)O)C(=O)N[C@@H](CCC(N)=O)C(=O)N[C@@H](Cc1c[nH]c2ccccc12)C(=O)N1CCC[C@H]1C(=O)N[C@@]1(C)CCCC=CCCC[C@@](C)(C(=O)N[C@@H](CCCNC(=N)N)C(=O)N[C@@H](CC(C)C)C(=O)N[C@@H](CC(C)C)C(=O)N[C@@H](CCCNC(=N)N)C(=O)N[C@@H](CCCCN)C(N)=O)NC(=O)[C@H](C(C)C)NC(=O)[C@H](CCCNC(=N)N)NC(=O)CNC1=O [BFStap(i + 4)6] (H-TRSSRAGLQWP[S5]GRV[S5]RLLRK-NH2; staple 12-16)	–	10.0	–
CC(C)C[C@H](NC(=O)CNC(=O)[C@H](C)NC(=O)[C@H](CCCNC(=N)N)NC(=O)[C@H](CO)NC(=O)[C@H](CO)NC(=O)[C@H](CCCNC(=N)N)NC(=O)[C@@H](N)[C@@H](C)O)C(=O)N[C@@H](CCC(N)=O)C(=O)N[C@@H](Cc1c[nH]c2ccccc12)C(=O)N1CCC[C@H]1C(=O)N[C@H](C(=O)NCC(=O)N[C@@H](CCCNC(=N)N)C(=O)N[C@H](C(=O)N[C@@H](Cc1c[nH]cn1)C(=O)N[C@@H](CCCNC(=N)N)C(=O)N[C@@H](CC(C)C)C(=O)N[C@@H](CC(C)C)C(=O)N[C@@H](CCCNC(=N)N)C(=O)N[C@@H](CCCCN)C(N)=O)C(C)C)C(C)C	–	–	0
CC(C)C[C@H](NC(=O)CNC(=O)[C@H](C)NC(=O)[C@H](CCCNC(=N)N)NC(=O)[C@H](CO)NC(=O)[C@H](CO)NC(=O)[C@H](CCCNC(=N)N)NC(=O)[C@@H](N)[C@@H](C)O)C(=O)N[C@@H](CCC(N)=O)C(=O)N[C@@H](Cc1c[nH]c2ccccc12)C(=O)N1CCC[C@H]1C(=O)N[C@H](C(=O)NCC(=O)N[C@@H](CCCNC(=N)N)C(=O)N[C@H](C(=O)N[C@@H](Cc1c[nH]cn1)C(=O)N[C@@]1(C)CCCC=CCCC[C@@](C)(C(N)=O)NC(=O)[C@H](CCCNC(=N)N)NC(=O)[C@H](CC(C)C)NC(=O)[C@H](CC(C)C)NC1=O)C(C)C)C(C)C [BFStap(i + 4)1] (H-TRSSRAGLQWPVGRVH[S5]LLR[S5]-NH2; staple 17-21; N-terminus and C-terminus assumed)	50.0	2.2	–
CC(C)C[C@H](NC(=O)CNC(=O)[C@H](C)NC(=O)[C@H](CCCNC(=N)N)NC(=O)[C@H](CO)NC(=O)[C@H](CO)NC(=O)[C@H](CCCNC(=N)N)NC(=O)[C@@H](N)[C@@H](C)O)C(=O)N[C@@H](CCC(N)=O)C(=O)N[C@@H](Cc1c[nH]c2ccccc12)C(=O)N1CCC[C@H]1C(=O)N[C@H](C(=O)NCC(=O)N[C@@H](CCCNC(=N)N)C(=O)N[C@H](C(=O)N[C@@H](Cc1cnc[nH]1)C(=O)N[C@@H](CCCNC(=N)N)C(=O)N[C@@H](CC(C)C)C(=O)N[C@@H](CC(C)C)C(=O)N[C@@H](CCCNC(=N)N)C(=O)N[C@@H](CCCCN)C(=O)O)C(C)C)C(C)C [Buforin II(F10W), reference compound]	>800	2.7	–
CC(C)C[C@@H]1NC(=O)CNC(=O)[C@H](C)NC(=O)[C@](C)(NC(=O)[C@H](CO)NC(=O)[C@H](CO)NC(=O)[C@H](CCCNC(=N)N)NC(=O)[C@@H](N)[C@@H](C)O)CCCCCCC=CCCC[C@@](C)(C(=O)NCC(=O)N[C@@H](CCCNC(=N)N)C(=O)N[C@H](C(=O)N[C@@H](Cc2c[nH]cn2)C(=O)N[C@@H](CCCNC(=N)N)C(=O)N[C@@H](CC(C)C)C(=O)N[C@@H](CC(C)C)C(=O)N[C@@H](CCCNC(=N)N)C(=O)N[C@@H](CCCCN)C(N)=O)C(C)C)NC(=O)[C@@H]2CCCN2C(=O)[C@H](Cc2c[nH]c3ccccc23)NC(=O)[C@H](CCC(N)=O)NC1=O [BFStap(i + 7)8] (H-TRSS[R8]AGLQWP[S5]GRVHRLLRK-NH2; staple 5-12)	–	3.9	0
